System: high fat fed NIH Swiss mice
Test: 28 day long-term study of fatty acid apelin analogues, once daily i.p. administration
Type: in vivo
From the text: NIH Swiss mice (Harlan UK Ltd., Blackthorne, UK) were derived from a nucleus colony obtained from the National Institute of Health, Bethesda, Md., USA. One group of mice were maintained on a standard rodent diet (10% fat, 30% protein, 60% carbohydrate; percent of total energy 12.99 kJ/g, Trouw Nutrition, Cheshire, UK) and used as a model of normal glycaemia. Other NIH Swiss mice were maintained on a high fat diet (45% fat, 20% protein, 35% carbohydrate; percent of total energy 26.15 kJ/g; Dietex, Essex, UK) from 8 weeks of age for 150 days to produce a model of diet induced obesity-diabetes. […] All mice were housed in an air-conditioned room maintained at 22±2° C. with a 12 h light: 12 h dark cycle (08:00-20:00 h), were singly caged, and selected for experimental groups according to body weight and non-fasted blood glucose. Drinking water and diet were freely available. All animal studies were performed in accordance with the UK Animals (Scientific Procedures) Act 1986.
For another 28 day long-term study of selected fatty acid apelin analogues administered once daily, normal control NIH Swiss (n=8) and high-fat fed NIH Swiss (n=8) were grouped and received once daily i.p. injections of saline vehicle (0.9% NaCl (w/v)) at 17:00 h over a 4 day run-in period. Following the run-in period, normal control (n=8) and high-fat fed mice (n=8) received once daily (17:00 h) i.p. administration of saline vehicle (0.9% NaCl (w/v)) for 28 days. Additional groups of high-fat fed mice (n=8) received once daily i.p. injections of (Lys^8gluPal)apelin-13-amide, pGlu(Lys^8gluPal)apelin-13-amide or liraglutide (each at 25 nmol/kg bw) over a 28 day treatment period.
Food intake, body weight, blood glucose and plasma insulin were monitored at intervals of 2-3 days throughout the run-in and 28 day treatment period. Blood samples for glucose and plasma insulin measurement were collected at intervals throughout the study from the cut tail vein of conscious mice. Following the 28 day treatment period, oral, i.p. and meal test glucose tolerance ([…].), and insulin sensitivity (25 U/kg bw) tests were performed. Glucose was measured using an Ascensia Contour meter and blood was collected and processed for plasma insulin analysis by radioimmunoassay. Body weight and fat mass was also assessed using the PIXImus DEXA scanner whilst energy expenditure, intake, food intake and feeding bouts were assessed using the CLAMS metabolic chamber. HbA1c was analysed post 28 days using Bayer A1C Now^+ Multi Test meter. Lipid profile test was obtained by using the iLab analyser. Cholesterol, triglyceride and HDL-cholesterol levels were measured, in plasma (3 μl), using the iLab analyser. LDL-cholesterol levels were obtained using the Friedewald equation=total cholesterol−HDL−(triglycerides/3).

[1] = once daily 25 nmol/kg bw, 28 days

CCCCCCCCCCCCCCCC(=O)N[C@@H](CCC(=O)NCCCC[C@H](NC(=O)[C@H](Cc1c[nH]cn1)NC(=O)[C@H](CO)NC(=O)[C@H](CC(C)C)NC(=O)[C@H](CCCNC(=N)N)NC(=O)[C@@H]1CCCN1C(=O)[C@H](CCCNC(=N)N)NC(=O)[C@@H]1CCC(=O)N1)C(=O)NCC(=O)N1CCC[C@H]1C(=O)N[C@@H](CCSC)C(=O)N1CCC[C@H]1C(=O)N[C@@H](Cc1ccccc1)C(N)=O)C(=O)O [pGlu(Lys^8GluPAL)apelin-13-amide]
HbA1c levels (after 28 days treatment): significantly reduced
Percentage fat mass (after 28 days, DEXA analysis): 30.1%
Insulin sensitivity (after 28 days, insulin 25 U/kg bw): significantly improved
Glucose tolerance and plasma insulin excursion in response to an i.p and oral glucose challenge (after the 28 day treatment period): significantly improved
HDL-cholesterol levels compared to the lean control and high fat fed mice (once daily): significantly increased
Bodyweight reduction [1]: approximately 7%
Day of study at which bodyweight was significantly decreased [1]: 16 days
Day of study at which circulating blood glucose began to be significantly reduced and plasma insulin increased [1]: 13 days
Day of study at which food intake was significantly reduced [1]: 8 days
LDL-cholesterol levels compared to the high fat fed controls (once daily, Friedewald equation): significantly lowered
Plasma triglyceride levels (once daily, high-fat fed mice): significantly lower
Total cholesterol levels in plasma (once daily, high-fat fed mice): significantly lower
